# Several values for one entry are separate records, joined by “and”; a condition that tells them apart may be missing. Equal values may be shown once. Read-outs that look alike come from different tables or passages of the source.
# Tests used:
# thymic epithelial tumors = assay: Phase I/II efficacy; type: in vivo, human
# [1] = system: protein acetylation, tubulin acetylation, p21 in PBMC; assay: Protein/tubulin acetylation and p21 in PBMC by multiparametric flow cytometry; type: in vivo, human
# [2] = Plasma pharmacokinetics of belinostat, 48-hr CIVI, cycle 1; type: in vivo, human; conditions: for clearance / half-life: human, plasma, intravenous; for half-life: cycle 1, n=25
# Thymoma = assay: Phase I/II efficacy; type: in vivo, human; conditions: belinostat + PAC
# Thymic carcinoma = assay: Phase I/II efficacy; type: in vivo, human; conditions: belinostat + PAC
# [3] = system: γ-H2AX expression on CD3+ and CD14+ cells; assay: DNA damage: γ-H2AX expression in PBMC; type: in vivo, human
# [4] = system: Regulatory T cells and CD8+ T cells; assay: T cell subsets and immune markers in PBMC by flow cytometry; type: in vivo, human
# [5] = system: patients with advanced thymic epithelial tumors; assay: Phase I dose escalation; type: in vivo, human
# [6] = system: patients with advanced thymic epithelial tumors; assay: Safety: treatment-related adverse events; type: in vivo, human
# TETs = conditions: single-agent belinostat, cited from earlier work
# [7] = cited from earlier work
# [8] = 23 evaluable patients treated at dose level 1
# [9] = belinostat + PAC, Total, 25 evaluable patients
# [10] = following belinostat plus chemotherapy, p<0.0001
# [11] = Dose level 1 (n=24), belinostat 1000 mg/m^2 + PAC
# [12] = Dose level 2 (n=2), belinostat 2000 mg/m^2 + PAC
smiles,measurement,setting,value
"O=C(/C=C/c1cccc(S(=O)(=O)Nc2ccccc2)c1)NO [belinostat, N-hydroxy-3-(phenylsulphamoylphenyl) acrylamide]",Patients who underwent R0 or R1 resection,thymic epithelial tumors; 9 of 23 assessed after at least 4 cycles of belinostat + PAC,39%
same,Patients with PD,thymic epithelial tumors; [8],4%
same,Patients with PRs,thymic epithelial tumors; [8],30%
same,Patients with CR,thymic epithelial tumors; 23 evaluable patients treated at dose level 1 (belinostat 1000 mg/m^2 + PAC),4%
same,Patients with no evidence of disease at the time of reporting,"thymic epithelial tumors; Six of 23, after multimodality therapy",26%
same,Median progression-free survival,"thymic epithelial tumors; belinostat + PAC, Total",9 months and 9.0 months
same,Complete response,thymic epithelial tumors; [9],1 (4) n (%)
same,Disease control rate (95% confidence interval),thymic epithelial tumors; [9],96 (79.7 –99.9) %
same,Objective Response Rate (95% confidence interval),thymic epithelial tumors; [9],40 (21.1 –61.3) %
same,Partial Response,thymic epithelial tumors; [9],9 (36) n (%)
same,Progressive Disease,thymic epithelial tumors; [9],1 (4) n (%)
same,Stable Disease,thymic epithelial tumors; [9],14 (56) n (%)
same,Median overall survival,"thymic epithelial tumors; belinostat + PAC, Total, median potential follow up 20.5 months",28.5 months
same,Patients with increase in total protein hyperacetylation of CD3+ cells,"[1]; 21 of 23 patients, after belinostat",91%
same,"Increase in total protein hyperacetylation of CD3+ cells, median",[1]; after belinostat,2.5 fold
same,p21 expression in CD14+ cells,"[1]; after belinostat alone, p=0.019",increased
same,PBMC acetylated tubulin,"[1]; after belinostat, p<0.0001",increased significantly
same,Total protein hyperacetylation of CD3+ cells,"[1]; after belinostat, p<0.0001",increased significantly
same,Total protein hyperacetylation of CD14+ cells,"[1]; after belinostat, p= 0.026",increased only marginally
same,p21 expression in CD14+ cells,[1]; [10],increased
same,PBMC acetylated tubulin,"[1]; following belinostat plus chemotherapy, p=0.0001",increased significantly
same,Plasma concentration of belinostat during the 48-hour infusion,"[2]; 250 mg/m^2 per 12-h infusion, with PAC",around 1 μM
same,clearance,"[2]; Clearance, range, 48-hr CIVI, cycle 1, all patients",683 to 13200 mL/min
same,clearance,"[2]; Clearance, range, after excluding outlier patient",683 to 3350 mL/min
same,half-life,"[2]; Half-life, range, 48-hr CIVI",12 to 54.6 min
same,clearance,"[2]; Mean clearance, 48-hr CIVI, cycle 1, all patients",2220 mL/min
same,half-life,"[2]; Mean half-life, 48-hr CIVI",28.2 min
same,clearance,"[2]; Total systemic clearance, the only patient with high serum creatinine (1.43 mg/dL)",1770 mL/min
same,"Differences in CMAX, AUCINF, clearance and half-life between genders and races",[2]; in vivo,no statistically significant differences
same,Median DOR,Thymoma,not reached
same,Median overall survival,Thymoma,Not reached
same,Median progression-free survival,Thymoma,Not reached
same,Complete response,Thymoma; 11 evaluable patients,1 (9) n (%)
same,Disease control rate (95% confidence interval),Thymoma; 11 evaluable patients,100 (71.5–100.0) %
same,Objective Response Rate (95% confidence interval),Thymoma; 11 evaluable patients,64 (30.8–89.1) %
same,Partial Response,Thymoma; 11 evaluable patients,6 (55) n (%)
same,Progressive Disease,Thymoma; 11 evaluable patients,0 n (%)
same,Stable Disease,Thymoma; 11 evaluable patients,4 (36) n (%)
same,Median overall survival,Thymic carcinoma,21.4 months
same,Median progression-free survival,Thymic carcinoma,7.2 months
same,Complete response,Thymic carcinoma; 14 evaluable patients,0 n (%)
same,Disease control rate (95% confidence interval),Thymic carcinoma; 14 evaluable patients,93 (66.1–99.8) %
same,Objective Response Rate (95% confidence interval),Thymic carcinoma; 14 evaluable patients,21 (4.7–50.8) %
same,Partial Response,Thymic carcinoma; 14 evaluable patients,3 (21) n (%)
same,Progressive Disease,Thymic carcinoma; 14 evaluable patients,1 (7) n (%)
same,γ-H2AX expression on CD3+ cells,"[3]; after belinostat alone, p=0.033",increased
same,γ-H2AX expression on CD14+ cells,"[3]; after belinostat alone, p=0.41",did not increase significantly
same,γ-H2AX expression on CD14+ cells,"[3]; after belinostat plus chemotherapy, p=0.012",increased
same,γ-H2AX expression on CD3+ cells,"[3]; following belinostat plus chemotherapy, p=0.01",increased
same,Fraction of CTLA4-expressing Tregs,"[4]; after belinostat alone, p=0.0078",increased significantly
same,Fraction of CTLA4-expressing Tregs,"[4]; after belinostat plus chemotherapy, p<0.0001",increased significantly
same,TIM3+ CD8+T cells,"[4]; following belinostat alone vs baseline, p < 0.0001",decreased significantly
same,PD-1+ CD8+ T cells,"[4]; following belinostat alone vs baseline, p=0.01",decreased significantly
same,Number of Tregs,"[4]; following belinostat alone, p=0.0009",decreased significantly
same,Number of Tregs,[4]; [10],decreased significantly
same,TIM3+ CD8+T cells,"[4]; following belinostat with chemotherapy vs baseline, p <0.0001",decreased significantly
same,Median progression-free survival,[4]; patients with greater decline in Tregs post-combination therapy,not reached
same,Median progression-free survival,[4]; patients with greater decline in post-combination therapy TIM3+ CD8+T cells,not reached
same,Median OS,[4]; patients with higher pre-treatment CTLA4-expressing Tregs,18.8 months
same,Median progression-free survival,[4]; patients with lesser decreases in TIM3+ CD8+T cells,7.8 months
same,Median OS,[4]; patients with lower pre-treatment CTLA4-expressing Tregs,37.5 months
same,Dose-limiting toxicities,"[5]; 2000 mg/m^2 belinostat (dose level 2) with PAC, in two patients",grade 3 nausea and diarrhea and grade 4 neutropenia and thrombocytopenia
same,Maximum-tolerated dose (MTD) of belinostat,"[5]; CIVI over 48 hours with PAC, 3-week cycles",1000 mg/m^2
same,"Alanine aminotransferase increased, Grade 3/4 (%)",[6]; All dose levels (n= 26),4 (15) n (%)
same,"Aspartate aminotransferase increased, Grade 3/4 (%)",[6]; All dose levels (n= 26),6 (23) n (%)
same,"Atrial fibrillation, Grade 3/4 (%)",[6]; All dose levels (n= 26),1 (4) n (%)
same,"Ejection fraction decreased, Grade 3/4 (%)",[6]; All dose levels (n= 26),1(4) n (%)
same,"Electrocardiogram QT corrected interval prolonged, Grade 3/4 (%)",[6]; All dose levels (n= 26),1(4) n (%)
same,"Enterocolitis infectious, Grade 3/4 (%)",[6]; All dose levels (n= 26),2(8) n (%)
same,"Febrile neutropenia, Grade 3/4 (%)",[6]; All dose levels (n= 26),3(12) n (%)
same,"Hearing impaired, Grade 3/4 (%)",[6]; All dose levels (n= 26),1(4) n (%)
same,"Hypermagnesemia, Grade 3/4 (%)",[6]; All dose levels (n= 26),3 (12) n (%)
same,"Hypoalbuminemia, Grade 3/4 (%)",[6]; All dose levels (n= 26),2(8) n (%)
same,"Hypocalcemia, Grade 3/4 (%)",[6]; All dose levels (n= 26),2(8) n (%)
same,"Hypokalemia, Grade 3/4 (%)",[6]; All dose levels (n= 26),4(15) n (%)
same,"Hypomagnesemia, Grade 3/4 (%)",[6]; All dose levels (n= 26),1(4) n (%)
same,"Hyponatremia, Grade 3/4 (%)",[6]; All dose levels (n= 26),1(4) n (%)
same,"Hypophosphatemia, Grade 3/4 (%)",[6]; All dose levels (n= 26),6(23) n (%)
same,"Limb edema, Grade 3/4 (%)",[6]; All dose levels (n= 26),1 (4) n (%)
same,"Lung infection, Grade 3/4 (%)",[6]; All dose levels (n= 26),2(8) n (%)
same,"Lymphocyte count decreased, Grade 3/4 (%)",[6]; All dose levels (n= 26),26 (100) n (%)
same,"Neutrophil count decreased, Grade 3/4 (%)",[6]; All dose levels (n= 26),21 (81) n (%)
same,"Non-cardiac chest pain, Grade 3/4 (%)",[6]; All dose levels (n= 26),1(4) n (%)
same,"Pain in extremity, Grade 3/4 (%)",[6]; All dose levels (n= 26),1(4) n (%)
same,"Platelet count decreased, Grade 3/4 (%)",[6]; All dose levels (n= 26),12 (46) n (%)
same,"Thromboembolic event, Grade 3/4 (%)",[6]; All dose levels (n= 26),3(12) n (%)
same,"Tumor lysis syndrome, Grade 3/4 (%)",[6]; All dose levels (n= 26),1(4) n (%)
same,"Urinary tract infection, Grade 3/4 (%)",[6]; All dose levels (n= 26),1(4) n (%)
same,"White blood cell decreased, Grade 3/4 (%)",[6]; All dose levels (n= 26),24 (92) n (%)
same,"Alanine aminotransferase increased, Grade 3/4",[6]; [11],3
same,"Aspartate aminotransferase increased, Grade 3/4",[6]; [11],4
same,"Ejection fraction decreased, Grade 3/4",[6]; [11],1
same,"Electrocardiogram QT corrected interval prolonged, Grade 3/4",[6]; [11],1
same,"Enterocolitis infectious, Grade 3/4",[6]; [11],1
same,"Febrile neutropenia, Grade 3/4",[6]; [11],3
same,"Hearing impaired, Grade 3/4",[6]; [11],1
same,"Hypermagnesemia, Grade 3/4",[6]; [11],3
same,"Hypoalbuminemia, Grade 3/4",[6]; [11],1
same,"Hypomagnesemia, Grade 3/4",[6]; [11],1
same,"Hypophosphatemia, Grade 3/4",[6]; [11],4
same,"Lung infection, Grade 3/4",[6]; [11],2
same,"Lymphocyte count decreased, Grade 3/4",[6]; [11],24
same,"Neutrophil count decreased, Grade 3/4",[6]; [11],19
same,"Non-cardiac chest pain, Grade 3/4",[6]; [11],1
same,"Pain in extremity, Grade 3/4",[6]; [11],1
same,"Platelet count decreased, Grade 3/4",[6]; [11],10
same,"Thromboembolic event, Grade 3/4",[6]; [11],3
same,"Urinary tract infection, Grade 3/4",[6]; [11],1
same,"White blood cell decreased, Grade 3/4",[6]; [11],22
same,"Alanine aminotransferase increased, Grade 3/4",[6]; [12],1
same,"Aspartate aminotransferase increased, Grade 3/4",[6]; [12],2
same,"Atrial fibrillation, Grade 3/4",[6]; [12],1
same,"Enterocolitis infectious, Grade 3/4",[6]; [12],1
same,"Hypoalbuminemia, Grade 3/4",[6]; [12],1
same,"Hypophosphatemia, Grade 3/4",[6]; [12],2
same,"Lymphocyte count decreased, Grade 3/4",[6]; [12],2
same,"Neutrophil count decreased, Grade 3/4",[6]; [12],2
same,"Platelet count decreased, Grade 3/4",[6]; [12],2
same,"Tumor lysis syndrome, Grade 3/4",[6]; [12],1
same,"White blood cell decreased, Grade 3/4",[6]; [12],2
same,Patients requiring dose reductions of PAC due to toxicities,"[6]; belinostat + PAC, n=26",35%
same,Patients who discontinued treatment due to adverse events,"[6]; belinostat + PAC, n=26",Four
same,Patients with QTc prolongation,"[6]; belinostat + PAC, n=26, any grade, one grade 3 event",35%
same,Patients with stable disease,TETs; of 41 patients,25 patients
same,Median overall survival,TETs; overall population,19.1 months
same,Median time to progression,TETs; overall population,5.8 months
same,Responses in patients with thymic carcinoma,TETs,no responses
same,Elimination half-life,[7]; administered IV with paclitaxel and carboplatin,102 min
same,Elimination half-life,[7]; administration over 30 minutes,31.2 to 32.4 min
same,Elimination half-life,[7]; orally alone,114 min

# Reference: PMC4216756 (Clinical cancer research : an official journal of the …, 2014)
